The test system of series [1] is A7 cells.
For series [2] the following is noted: reported earlier; cited from earlier work.
The nature of series [3]: Cell penetrating capacity of the pentapeptide. The conditions noted are these: cells incubated with the peptide >1 hr (n.s.). Format: cell-based.

Peptide text beside a SMILES is read from it.

Take `CC[C@H](C)[C@H](NC(=O)[C@H](CC(C)C)NC(=O)[C@H](Cc1ccccc1)NC(=O)[C@H](CO)NC(=O)[C@@H](NC(=O)[C@H](CC(C)C)NC(=O)[C@H](CC(C)C)NC(=O)[C@@H](NC(=O)[C@@H](NC(=O)[C@@H]1CCCN1C(=O)[C@@H]1CCCN1C(=O)[C@H](CCCCN)NC(=O)[C@@H]1CCCN1C(=O)[C@H](CCCNC(=N)N)NC(=O)[C@H](CCCCN)NC(=O)[C@@H](N)CCCCN)C(C)C)[C@@H](C)CC)[C@@H](C)CC)C(=O)N[C@@H](Cc1ccccc1)C(=O)N[C@@H](CC(C)C)C(=O)N[C@H](C(=O)N[C@H](C(=O)NCC(=O)O)C(C)C)[C@@H](C)CC` [KKRPK-PrP-GPI-PSS] (H-KKRPKPPVILLISFLIFLIVG-OH): the toxicity entry in series [1] is on record as “not toxic”.
With “KKRPK (listed as Homo sapiens) [cell penetrating pentapeptide, transport moiety]”, the cell penetrating capacity entry in series [2] was “has cell penetrating capacity”. Besides, the “entry into cells without Ca2+” value in series [3] is on record as “can enter the cells”.

These data come from patent US9492472B2, “Compositions and methods of treating cancer” (Case Western Reserve University, priority 2009, dated 2016).
